What all share (assay): Zone of inhibition screen, 96 well agar array format
Holding throughout (type): cell-based
Common to all, as to set-up: scale not given here

Test [1] relates to S. epidermidis (ATCC 12228). In short, it runs like this: (§1)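 Compounds are screened one by one for antibacterial effect in an agar array of 96 wells, using the same set of strains throughout.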
The next test deals with S. aureus (ATCC 29213). The method, boiled down: as §1
Another test concerns E. faecalis (CL 4877). The method, boiled down: as §1
Where [2] appears, read: zone of inhibition relative to 1 mg/ml stock solution of p-chlorobiphenylvancomycin.
The mark [3] stands for this setting: zone of inhibition relative to 1 mg/ml p-chlorobiphenylvancomycin.

Turning to `CC(=O)OCC(=O)NC1C(=O)NC(CC(N)=O)C(=O)NC2C(=O)NC3C(=O)NC(C(=O)NC(C(=O)O)c4cc(O)cc(O)c4-c4cc3ccc4O)C(O)c3ccc(c(Cl)c3)Oc3cc2cc(c3OC2OC(CO)C(O)C(O)C2OC2CC(C)(NCc3ccc(-c4ccc(Cl)cc4)cc3)C(O)C(C)O2)Oc2ccc(cc2Cl)C1O` (centres unmarked) [Compound 117], in test [1] (setting [2]), the “zone score, S. epidermidis ATCC 12228” value was determined as 2. The “zone score, S. aureus ATCC 29213” value with S. aureus (ATCC 29213) (setting [2]) is given as 2.

With `CC1OC(OC2C(Oc3c4cc5cc3Oc3ccc(cc3Cl)C(O)C3NC(=O)C(NC(=O)C5NC(=O)C(CC(N)=O)NC(=O)C(NC(=O)C5CCC(=O)O5)C(O)c5ccc(c(Cl)c5)O4)c4ccc(O)c(c4)-c4c(O)cc(O)cc4C(C(=O)O)NC3=O)OC(CO)C(O)C2O)CC(C)(NCc2ccc(-c3ccc(Cl)cc3)cc2)C1O` (centres unmarked) [Compound 227], in test [1] (setting [3]), the “zone score, S. epidermidis ATCC 12228” value turned out to be 2. Also, the “zone score, S. aureus ATCC 29213” value in the test on S. aureus (ATCC 29213) (setting [3]) is on record as 2.

Take `CC1OC(OC2C(Oc3c4cc5cc3Oc3ccc(cc3Cl)C(O)C3NC(=O)C(NC(=O)C5NC(=O)C(CC(N)=O)NC(=O)C(NC(=O)C5CCCO5)C(O)c5ccc(c(Cl)c5)O4)c4ccc(O)c(c4)-c4c(O)cc(O)cc4C(C(=O)O)NC3=O)OC(CO)C(O)C2O)CC(C)(NCc2ccc(-c3ccc(Cl)cc3)cc2)C1O` (centres unmarked) [Compound 316]: in test [1] (setting [3]), the “zone score, S. epidermidis ATCC 12228” value came out at 2. The “zone score, S. aureus ATCC 29213” value in the test on S. aureus (ATCC 29213) (setting [3]) turned out to be 2.

As to `CSCCC(N)C(O)CC(=O)NC1C(=O)NC(CC(N)=O)C(=O)NC2C(=O)NC3C(=O)NC(C(=O)NC(C(=O)O)c4cc(O)cc(O)c4-c4cc3ccc4O)C(O)c3ccc(c(Cl)c3)Oc3cc2cc(c3OC2OC(CO)C(O)C(O)C2OC2CC(C)(NCc3ccc(-c4ccc(Cl)cc4)cc3)C(O)C(C)O2)Oc2ccc(cc2Cl)C1O` (centres unmarked) [Compound 31], the “zone score, S. epidermidis ATCC 12228” value in test [1] (setting [2]) was 2. The “zone score, S. aureus ATCC 29213” value with S. aureus (ATCC 29213) (setting [2]) came to 2.

As for `CC(O)C(=O)NC1C(=O)NC(CC(N)=O)C(=O)NC2C(=O)NC3C(=O)NC(C(=O)NC(C(=O)O)c4cc(O)cc(O)c4-c4cc3ccc4O)C(O)c3ccc(c(Cl)c3)Oc3cc2cc(c3OC2OC(CO)C(O)C(O)C2OC2CC(C)(NCc3ccc(-c4ccc(Cl)cc4)cc3)C(O)C(C)O2)Oc2ccc(cc2Cl)C1O` (centres unmarked) [Compound 294], the “zone score, S. epidermidis ATCC 12228” value in test [1] (setting [3]) came to 2. Also, the “zone score, E. faecalis CL 4877” value with E. faecalis (CL 4877) (setting [3]) is on record as 2.

For the molecule `CCOC(=O)C=CC(=O)NC1C(=O)NC(CC(N)=O)C(=O)NC2C(=O)NC3C(=O)NC(C(=O)NC(C(=O)O)c4cc(O)cc(O)c4-c4cc3ccc4O)C(O)c3ccc(c(Cl)c3)Oc3cc2cc(c3OC2OC(CO)C(O)C(O)C2OC2CC(C)(NCc3ccc(-c4ccc(Cl)cc4)cc3)C(O)C(C)O2)Oc2ccc(cc2Cl)C1O` (centres unmarked) [Compound 288], the “zone score, S. epidermidis ATCC 12228” value in test [1] (setting [3]) amounted to 2. The “zone score, E. faecalis CL 4877” value in the test on E. faecalis (CL 4877) (setting [3]) was found to be 2.

As to `CC1OC(OC2C(Oc3c4cc5cc3Oc3ccc(cc3Cl)C(O)C3NC(=O)C(NC(=O)C5NC(=O)C(CC(N)=O)NC(=O)C(NC(=O)C[N+](C)(C)C)C(O)c5ccc(c(Cl)c5)O4)c4ccc(O)c(c4)-c4c(O)cc(O)cc4C(C(=O)O)NC3=O)OC(CO)C(O)C2O)CC(C)(NCc2ccc(-c3ccc(Cl)cc3)cc2)C1O` (centres unmarked) [Compound 129], the “zone score, S. epidermidis ATCC 12228” value in test [1] (setting [2]) is 2. Also, in the test on E. faecalis (CL 4877) (setting [2]), the “zone score, E. faecalis CL 4877” value is recorded as 2.

Turning to `CC1OC(OC2C(Oc3c4cc5cc3Oc3ccc(cc3Cl)C(O)C3NC(=O)C(NC(=O)C5NC(=O)C(CC(N)=O)NC(=O)C(NC(=O)c5ccncc5)C(O)c5ccc(c(Cl)c5)O4)c4ccc(O)c(c4)-c4c(O)cc(O)cc4C(C(=O)O)NC3=O)OC(CO)C(O)C2O)CC(C)(NCc2ccc(-c3ccc(Cl)cc3)cc2)C1O` (centres unmarked) [Compound 292], the “zone score, S. epidermidis ATCC 12228” value in test [1] (setting [3]) is 2. Also, in the test with E. faecalis (CL 4877) (setting [3]), the “zone score, E. faecalis CL 4877” value is on record as 2.

Consider `CC(=O)NC1C(=O)NC(CC(N)=O)C(=O)NC2C(=O)NC3C(=O)NC(C(=O)NC(C(=O)O)c4cc(O)cc(O)c4-c4cc3ccc4O)C(O)c3ccc(c(Cl)c3)Oc3cc2cc(c3OC2OC(CO)C(O)C(O)C2OC2CC(C)(NCc3ccc(-c4ccc(Cl)cc4)cc3)C(O)C(C)O2)Oc2ccc(cc2Cl)C1O` (centres unmarked) [Compound 279], for which the “zone score, S. epidermidis ATCC 12228” value in test [1] (setting [3]) was determined as 2. Also, in the test on E. faecalis (CL 4877) (setting [3]), the “zone score, E. faecalis CL 4877” value was found to be 2.

For `CC1OC(OC2C(Oc3c4cc5cc3Oc3ccc(cc3Cl)C(O)C3NC(=O)C(NC(=O)C5NC(=O)C(CC(N)=O)NC(=O)C(NC(=O)c5cccc(O)n5)C(O)c5ccc(c(Cl)c5)O4)c4ccc(O)c(c4)-c4c(O)cc(O)cc4C(C(=O)O)NC3=O)OC(CO)C(O)C2O)CC(C)(NCc2ccc(-c3ccc(Cl)cc3)cc2)C1O` (centres unmarked) [Compound 277], in test [1] (setting [3]), the “zone score, S. epidermidis ATCC 12228” value was 2. Besides, in the test on E. faecalis (CL 4877) (setting [3]), the “zone score, E. faecalis CL 4877” value amounted to 2.

On to `CCOC(=O)C=CC(=O)NC1C(=O)NC(CC(N)=O)C(=O)NC2C(=O)NC3C(=O)NC(C(=O)NC(C(=O)O)c4cc(O)cc(O)c4-c4cc3ccc4O)C(O)c3ccc(c(Cl)c3)Oc3cc2cc(c3OC2OC(CO)C(O)C(O)C2OC2CC(C)(NCc3ccc(-c4ccc(Cl)cc4)cc3)C(O)C(C)O2)Oc2ccc(cc2Cl)C1O` (centres unmarked) [Compound 296], for which the “zone score, S. epidermidis ATCC 12228” value in test [1] (setting [3]) is on record as 2. The “zone score, E. faecalis CL 4877” value in the test on E. faecalis (CL 4877) (setting [3]) amounted to 2.

`CC1OC(OC2C(Oc3c4cc5cc3Oc3ccc(cc3Cl)C(O)C3NC(=O)C(NC(=O)C5NC(=O)C(CC(N)=O)NC(=O)C(NC(=O)CNC(=O)C=Cc5ccco5)C(O)c5ccc(c(Cl)c5)O4)c4ccc(O)c(c4)-c4c(O)cc(O)cc4C(C(=O)O)NC3=O)OC(CO)C(O)C2O)CC(C)(NCc2ccc(-c3ccc(Cl)cc3)cc2)C1O` (centres unmarked) [Compound 306]: the “zone score, S. epidermidis ATCC 12228” value in test [1] (setting [3]) is 2. Further, the “zone score, E. faecalis CL 4877” value in the test on E. faecalis (CL 4877) (setting [3]) came to 2.

Take `CNC(=O)C=CC(=O)NC1C(=O)NC(CC(N)=O)C(=O)NC2C(=O)NC3C(=O)NC(C(=O)NC(C(=O)O)c4cc(O)cc(O)c4-c4cc3ccc4O)C(O)c3ccc(c(Cl)c3)Oc3cc2cc(c3OC2OC(CO)C(O)C(O)C2OC2CC(C)(NCc3ccc(-c4ccc(Cl)cc4)cc3)C(O)C(C)O2)Oc2ccc(cc2Cl)C1O` (centres unmarked) [Compound 309]: the “zone score, S. epidermidis ATCC 12228” value in test [1] (setting [3]) worked out at 2. Moreover, the “zone score, E. faecalis CL 4877” value in the test with E. faecalis (CL 4877) (setting [3]) came out at 2.

With `CC1OC(OC2C(Oc3c4cc5cc3Oc3ccc(cc3Cl)C(O)C3NC(=O)C(NC(=O)C5NC(=O)C(CC(N)=O)NC(=O)C(NC(=O)c5cccnc5N)C(O)c5ccc(c(Cl)c5)O4)c4ccc(O)c(c4)-c4c(O)cc(O)cc4C(C(=O)O)NC3=O)OC(CO)C(O)C2O)CC(C)(NCc2ccc(-c3ccc(Cl)cc3)cc2)C1O` (centres unmarked) [Compound 237], the “zone score, S. epidermidis ATCC 12228” value in test [1] (setting [3]) came to 2. For the same molecule, the “zone score, E. faecalis CL 4877” value with E. faecalis (CL 4877) (setting [3]) amounted to 2.

Regarding `CC1OC(OC2C(Oc3c4cc5cc3Oc3ccc(cc3Cl)C(O)C3NC(=O)C(NC(=O)C5NC(=O)C(CC(N)=O)NC(=O)C(NC(=O)Cc5c(F)c(F)c(F)c(F)c5F)C(O)c5ccc(c(Cl)c5)O4)c4ccc(O)c(c4)-c4c(O)cc(O)cc4C(C(=O)O)NC3=O)OC(CO)C(O)C2O)CC(C)(NCc2ccc(-c3ccc(Cl)cc3)cc2)C1O` (centres unmarked) [Compound 310], in test [1] (setting [3]), the “zone score, S. epidermidis ATCC 12228” value was found to be 2. Moreover, the “zone score, E. faecalis CL 4877” value in the test with E. faecalis (CL 4877) (setting [3]) is on record as 2.

For `CC(=O)CCC(=O)NC1C(=O)NC(CC(N)=O)C(=O)NC2C(=O)NC3C(=O)NC(C(=O)NC(C(=O)O)c4cc(O)cc(O)c4-c4cc3ccc4O)C(O)c3ccc(c(Cl)c3)Oc3cc2cc(c3OC2OC(CO)C(O)C(O)C2OC2CC(C)(NCc3ccc(-c4ccc(Cl)cc4)cc3)C(O)C(C)O2)Oc2ccc(cc2Cl)C1O` (centres unmarked) [Compound 295], in test [1] (setting [3]), the “zone score, S. epidermidis ATCC 12228” value stood at 2. The “zone score, E. faecalis CL 4877” value with E. faecalis (CL 4877) (setting [3]) came out at 2.

The values above are taken from patent US6518243B1, “Desleucyl glycopeptide antibiotics and methods of making same” (Trustees of Princeton University, priority 1999, dated 2003).
